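Briefly, cells in 96-well plates were exposed to five compound concentrations for 48 h, and endpoints were estimated by linear interpolation. GI50 = concentration required for 50% inhibition of growth. TGI denotes the concentration required for complete inhibition of growth.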
How the values were obtained:
Experiment in all cases: NCI-60 cell line screen, 48 h
HCC-2998 colon = test system: HCC-2998 colon
SK-MEL-28 melanoma = test system: SK-MEL-28 melanoma
LOX IMVI melanoma = test system: LOX IMVI melanoma
SF-295 CNS = test system: SF-295 CNS
DMS 114 small cell lung = test system: DMS 114 small cell lung
OVCAR-4 ovarian = test system: OVCAR-4 ovarian
KM20L2 colon = test system: KM20L2 colon
NCI-H522 lung = test system: NCI-H522 lung
COLO 205 colon = test system: COLO 205 colon
DU-145 prostate = test system: DU-145 prostate

| SMILES | TGI (HCC-2998 colon) | TGI (SK-MEL-28 melanoma) | TGI (LOX IMVI melanoma) | TGI (SF-295 CNS) | TGI (DMS 114 small cell lung) | TGI (OVCAR-4 ovarian) | TGI (KM20L2 colon) | TGI (NCI-H522 lung) | TGI (COLO 205 colon) | GI50 (HCC-2998 colon) | GI50 (SK-MEL-28 melanoma) | GI50 (LOX IMVI melanoma) | GI50 (SF-295 CNS) | GI50 (DMS 114 small cell lung) | GI50 (OVCAR-4 ovarian) | GI50 (KM20L2 colon) | GI50 (NCI-H522 lung) | GI50 (COLO 205 colon) | TGI (DU-145 prostate) |
| --- | --- | --- | --- | --- | --- | --- | --- | --- | --- | --- | --- | --- | --- | --- | --- | --- | --- | --- | --- |
| CN(c1ccccc1)c1c(Cl)c(=O)oc2c1ccc1occc12 | > 100 µM | > 100 µM | > 100 µM | > 100 µM | > 100 µM | > 100 µM | > 100 µM | > 100 µM |  |  |  |  |  |  |  |  |  |  |  |
| CCOC(=O)C1(C)CCCCC(=O)N1 (centres undefined) | > 100 µM | > 100 µM | > 100 µM | > 100 µM | > 100 µM | > 100 µM | > 100 µM |  | > 100 µM |  |  |  |  |  |  |  |  |  |  |
| O=P(O)(O)C1(P(=O)(O)O)CC1 | > 100 µM | > 100 µM | > 100 µM | > 100 µM | > 100 µM | > 100 µM | > 100 µM | > 100 µM | > 100 µM |  |  |  |  |  |  |  |  |  |  |
| COc1cc(CCc2ccc(N)cc2)cc(OC)c1OC | > 100 µM | 92.8 µM | > 100 µM | > 61.6 µM | 83.8 µM | > 100 µM | > 100 µM | > 83.4 µM | 53.1 µM |  |  |  |  |  |  |  |  |  |  |
| CCCCCCC[CH2][Sn]1([CH2]CCCCCCC)[O]C(=O)c2cccnc2[O]1 | > 100 µM | > 100 µM | > 100 µM | > 100 µM | > 100 µM | > 100 µM | > 100 µM | > 100 µM | > 100 µM | > 100 µM | > 100 µM | > 100 µM | > 100 µM | > 100 µM | > 100 µM | > 100 µM | > 100 µM | > 100 µM |  |
| ClC(Cl)[Si]12OCCN(CCO1)CCO2 | > 100 µM | > 100 µM |  | > 100 µM | > 100 µM |  |  | > 100 µM | > 100 µM |  |  |  |  |  |  |  |  |  |  |
| CCSc1c2ccccc2c(-c2nc(F)nc(F)n2)n1CCc1ccccc1 | > 100 µM | > 100 µM | > 100 µM | > 100 µM | > 100 µM | > 100 µM | > 100 µM | > 100 µM | > 100 µM |  |  |  |  |  |  |  |  |  |  |
| C[C@]12CCC3[C@@H](CC[C@@H]4c5nonc5CC[C@]34C)C1CC[C@@H]2O (some centres undefined) | > 100 µM | 70 µM | 41.1 µM | > 100 µM | 71.2 µM | 82.4 µM | > 100 µM | 50.9 µM | 71.3 µM |  |  |  |  |  |  |  |  |  |  |
| CSC(=Nc1ccccc1)/N=C(\SCc1ccccc1)N(C)C | 1.69 µM | 1.79 µM | 0.383 µM | 2.89 µM | 3.77 µM | 2.43 µM |  | 0.54 µM | 1.58 µM |  |  |  |  |  |  |  |  |  | 2.13 µM |
| COc1cccc(-c2cc(=O)c3ccccc3[nH]2)c1 | 18.1 µM | > 100 µM | > 100 µM | 14.8 µM | > 59.3 µM | > 100 µM | 27.1 µM | > 34.2 µM | > 38.2 µM |  |  |  |  |  |  |  |  |  |  |
| Nc1c(Cl)ncnc1NCCCNc1ncnc(Cl)c1N | > 100 µM | > 100 µM | > 100 µM | > 100 µM | > 100 µM | > 100 µM | > 100 µM | > 100 µM | > 100 µM |  |  |  |  |  |  |  |  |  |  |
| CC1=C(C(=O)Nc2ccc(Cl)c(C(=O)OC(C)C)c2)SCCO1 | 75 µM | 99.5 µM | 84.6 µM | > 80.7 µM |  | > 97.6 µM | 73.9 µM | 69.9 µM | 60 µM |  |  |  |  |  |  |  |  |  | > 100 µM |
| Cc1ccc(S(=O)(=O)N/N=C(/c2nc3ccc([N+](=O)[O-])cc3[nH]c2=O)C(O)c2ccc(C(O)/C(=N\NS(=O)(=O)c3ccc(C)cc3)c3nc4ccc([N+](=O)[O-])cc4[nH]c3=O)cc2)cc1 (centres undefined) | 77.4 µM | > 100 µM | > 100 µM |  | > 100 µM |  | > 100 µM | 55.7 µM | > 100 µM |  |  |  |  |  |  |  |  |  |  |
| Nc1ncnc2c1ncn2C1CC(OCc2ccccc2[N+](=O)[O-])C(CO)O1 (centres undefined) | > 50 µM | > 50 µM | > 50 µM | > 50 µM | 47.2 µM | > 50 µM | > 50 µM | 35.9 µM | 16.9 µM |  |  |  |  |  |  |  |  |  |  |
| NS(=O)(=O)OCCCCCCCOS(N)(=O)=O | 718 µM | 1680 µM | 724 µM | 1020 µM | 669 µM | 1110 µM | 1470 µM | 916 µM | 814 µM |  |  |  |  |  |  |  |  |  | 873 µM |
| c1ccc2c(c1)cc1n2CC2CN=NC12 (centres undefined) | > 100 µM | > 100 µM | > 100 µM | > 100 µM |  | > 100 µM | > 100 µM | > 100 µM |  |  |  |  |  |  |  |  |  |  |  |
| O=c1[nH]cnc2c1nnn2CCCCCCCCCCCCn1nnc2c(=O)[nH]cnc21 | > 100 µM | > 100 µM | > 100 µM | 48.4 µM | 39.4 µM | > 100 µM | > 100 µM | 63 µM | > 100 µM |  |  |  |  |  |  |  |  |  | > 100 µM |
| CC1=C(C(=O)Nc2cc(F)c(F)cc2F)C(c2ccc([N+](=O)[O-])cc2)C(C(=O)Nc2cc(F)c(F)cc2F)=C(C)N1 | 60.5 µM | > 100 µM | > 100 µM | > 100 µM | > 100 µM | > 100 µM | > 100 µM | 55.6 µM | > 100 µM |  |  |  |  |  |  |  |  |  |  |
